Test results as given in patent US9993491B2, “Guanine riboswitch binding compounds and their use as antibiotics” (SOCPRA—SCIENCES ET GENIE S.E.C., priority 2009, dated 2018).
In brackets after ≈: the same amount, converted by molar mass. Where two headings read alike, the source gives them in different places.

Experiments:
[1] = test system: guanine xpt riboswitch from Streptococcus pyogenes (STPY-xpt); assay: Relative binding by displacement of 2-aminopurine from the STPY-xpt aptamer
Protocol: Shown in FIG. 4A is the structure of the guanine ligand and the compounds: 4-hydroxy-2,5,6-triaminopyrimidine shown as 2,5,6-triaminopyrimidine-4-one (compound 1.01), 2,4-diamino-6-hydroxypyrimidine shown as 2,6-diaminopyrimidine-4-one (compound 1.13) and 5,6-diamino-uracil (2AU) as well as their predicted hydrogen bonds (arrows). […] The experiment was performed as in for example Mulhbacher and Lafontaine, 2007. […] Briefly, STPY-xpt aptamers were incubated in the presence of the guanine-like ligand 2-aminopurine alone (Neg. control) or in the presence of 1 or 10 μM of the above-listed compounds. The relative binding affinity was obtained from the ability of a ligand to displace the 2-aminopurine from the guanine riboswitch STPY-xpt aptamer.

[2] = test system: methicillin resistant S. aureus; assay: Antibiogram with 6-thioguanine; format: cell-based; settings: 0.5 or 1 mg/mL
E. coli ATCC 35695 = assay: Antibiogram with 6-thioguanine; format: cell-based; settings: 0.5 or 1 mg/mL; E. coli ATCC 35695 (lacks guaA riboswitch)
[3] = test system: S. aureus strain ATCC 29213; format: cell-based; settings: sub-inhibitory concentrations, MIC determined every 5 passages up to 30
S. aureus = S. aureus infection of the mouse mammary glands, CFU count; format: in vivo; settings: intra-mammary injection of 10 times the effective dose; treated 4 h after infection, glands excised 6 h later
Protocol: The efficacy of compound 1.01 in treating a S. aureus infection of the mouse mammary glands was examined. Briefly, mouse mammary glands were infected with 100 CFU of S. aureus. Four hours after the inoculation, the glands were treated with vehicle (PBS), 10, 50 or 100 μg/gland of compound 1.01. Six hours later, glands were excised, homogenized and plated on Mueller-Hinton agar. CFU were then counted after 18 hours at 35° C. Each dot represents the CFU of each individual gland (n=6-12) and the median value for each group is indicated by the bar. Statistical differences (P<0.05) between CFU recovered from treated and untreated animals are shown by asterisks (non-parametric Kruskal-Wallis ANOVA with Dunn's post test).

[4] = test system: Bacillus halodurans, S. haemolyticus, S. aureus ATCC29213, SA228a, MRSA COL, Clostridium botulinum, Clostridium difficile Cd6 and 630, S. epidermidis; format: cell-based
E. coli Imp = assay: microbe, parasite or virus in culture; settings: Escherichia coli, 24 h, read-out: Minimum inhibitory concentration (MIC)
[5] = test system: S. aureus strain ATCC 29213; assay: MIC / growth inhibition, microdilution method; format: cell-based; settings: for MIC: Staphylococcus aureus, ATCC29213, 24 h; for S. aureus growth inhibition: Yes/No
S. aureus Chronic #3 = assay: Bactericidal activity, fold reduction of CFU/mL; format: cell-based; settings: 600 μg/mL, 4 hours
Protocol: (§1) The bactericidal activity of compound 1.01 on various strains of S. aureus (including 3 chronic strains and 3 prototypical strains) was determined. These strains include prototypical S. aureus strains ATCC 29213, Newbould 305, SHY97-3906 as well as S. aureus strains isolated from persistent and chronic bovine mastitis cases (isolates #3, #557, #1290). C. difficile strain Cd6 was also examined. […] The results are summarized in Table 5 below and are expressed as the mean fold reduction of CFU/mL (i.e., the number of CFU/mL of control bacteria divided by the number of CFU/mL of treated bacteria).

C. difficile (Cd6) = assay: Bactericidal activity, fold reduction of CFU/mL; format: cell-based; settings: 600 μg/mL, 4 hours
Protocol: as §1

S. aureus Chronic #557 = assay: Bactericidal activity, fold reduction of CFU/mL; format: cell-based; settings: 600 μg/mL, 4 hours
Protocol: as §1

S. aureus Newbould 305 = assay: Bactericidal activity, fold reduction of CFU/mL; format: cell-based; settings: 600 μg/mL, 4 hours
Protocol: as §1

S. aureus Chronic #1290 = assay: Bactericidal activity, fold reduction of CFU/mL; format: cell-based; settings: 600 μg/mL, 4 hours
Protocol: as §1

S. aureus SHY97-3906 = assay: Bactericidal activity, fold reduction of CFU/mL; format: cell-based; settings: 600 μg/mL, 4 hours
Protocol: as §1

S. aureus ATCC 29213 = assay: Bactericidal activity, fold reduction of CFU/mL; format: cell-based; settings: 600 μg/mL, 4 hours
Protocol: as §1

[6] = test system: S. aureus strain ATCC 29213; assay: Growth as a function of time (CFU counts); format: cell-based; settings: compared with ciprofloxacin
[7] = Tolerance of intramammary injection in cows; format: in vivo, Holstein cows; settings: intramammary 100 mg, 250 mg or 500 mg per quarter, 4 cows, 48 h
S. aureus genes = assay: Transcriptomic microarray analysis of more than 500 genes; format: cell-based; settings: 30 min
[8] = test system: Bacillus subtilis, Enterococcus feacium, Listeria monocytogenes, Streptococcus dysgalactiae, Streptococus pyogenes, Streptococcus uberis; format: cell-based
E. coli AcrAB—/— = assay: microbe, parasite or virus in culture; settings: Escherichia coli, 24 h, read-out: Minimum inhibitory concentration (MIC)
E. coli ATCC35695 = assay: MIC, microdilution method in 96-well microplates; settings: for MIC: Escherichia coli, ATCC35695, 24 h, read-out: Minimum inhibitory concentration (MIC); for Antimicrobial activity on E. coli: E. coli strain ATCC 35695
guanine riboswitch = assay: Guanine riboswitch binding (Table 6); settings: Yes/No
[9] = compound at 10 μM, compared with 1 μM guanine
[10] = S. aureus ATCC 29213, 24 h, 37° C., read-out: MIC
[11] = S. aureus ATCC 29213, 24 h, 37° C., read-out: S. aureus growth inhibition, MIC

With `Nc1[nH]c(=O)[nH]c(=O)c1N` the Relative binding [1, 9] was 0.05.

With `Nc1nc2[nH]cnc2c(=S)[nH]1` [6-thioguanine] the “Antibiotic activity in antibiogram” value [2] was “non-specific antibiotic activity”, the “Antibiotic activity in antibiogram” value (E. coli ATCC 35695) was “non-specific antibiotic activity” and the Relative binding [1, 9] was 0.14.

For `Nc1nc(N)c(N)c(O)n1` [Compound 1.01, 4-hydroxy-2,5,6-triaminopyrimidine], the “Passages until resistance is selected” value [3] was “at least 30 passages”, the “Reduction of bacterial counts” value (S. aureus) was greater than 3 log10 and the “Sensitivity of strains in antibiogram” value [4] was “sensitive”. The MIC (E. coli Imp) was greater than 5000 µg/mL, the MIC [5, 10] was roughly 600 µg/mL (≈ 4250 µM) and the “Fold reduction of CFU/mL (control/treated), Mean (log10)” value (S. aureus Chronic #3) was 5.11 log10. The “Fold reduction of CFU/mL (control/treated), Mean (log10)” value (C. difficile (Cd6)) was 5.42 log10, the “Fold reduction of CFU/mL (control/treated), Mean (log10)” value (S. aureus Chronic #557) was 4.38 log10 and the “Fold reduction of CFU/mL (control/treated), Mean (log10)” value (S. aureus Newbould 305) was 4.86 log10. The “Fold reduction of CFU/mL (control/treated), Mean (log10)” value (S. aureus Chronic #1290) was 5.42 log10, the “Fold reduction of CFU/mL (control/treated), Mean (log10)” value (S. aureus SHY97-3906) was 6.35 log10 and the “Fold reduction of CFU/mL (control/treated), Mean (log10)” value (S. aureus ATCC 29213) was 6.67 log10. The “Rapidity of anti-bacterial effect” value [6] was “as rapid as that of the well-known antibiotic ciprofloxacin”, the “Cytotoxicity upon histological observations of mammary tissues” value (100 μg/gland, compared to PBS-treated glands) was “no apparent cytotoxicity” and the “Signs of toxicity in mice (posture, breathing, piloerection, movement)” value (mouse, in vivo) was “without causing any significant signs of toxicity”. The “Body temperature, milk appearance, milk somatic cell counts, milk quarter production” value [7] was “no change in body temperature, milk appearance, milk somatic cell counts or individual milk quarter production”, the Genes repressed (S. aureus genes; 600 μg/mL compound alone) was greater than 75% and the Genes repressed (S. aureus genes; 600 μg/mL compound supplemented with 100 μM GMP) was 20%. For the same compound, the Relative binding [1, 9] was 0.26, the “Sensitivity of strains in antibiogram” value [8] was “insensitive” and the MIC (E. coli AcrAB—/—) was greater than 5000 µg/mL. For the same compound, the MIC (E. coli ATCC35695) was greater than 5000 µg/mL.

`Nc1cc(=O)[nH]c(N)n1` [Compound 1.13, 2,4-diamino-6-hydroxypyrimidine] showed an MIC (E. coli Imp) greater than 5000 µg/mL, an MIC [5, 10] of roughly 5000 µg/mL (≈ 39600 µM) and a Relative binding [1, 9] of 0.39. It also gave an MIC (E. coli AcrAB—/—) greater than 5000 µg/mL and an MIC (E. coli ATCC35695) greater than 5000 µg/mL.

With `Nc1nc(S)[nH]c(=O)c1N` [Compound 1.16, 4,5-diamino-6-hydroxy-2-mercaptopyrimidine] the Guanine riboswitch binding (guanine riboswitch) was “Yes”, the MIC [5, 11] was 128 µg/mL (≈ 809 µM) and the “S. aureus growth inhibition” value [5] was “Yes”. For the same compound, the “Antimicrobial activity on E. coli” value (E. coli ATCC35695) was “no antimicrobial activity”.

In the case of `Nc1nc2ocnc2c(=O)[nH]1` [Compound 2.02, 5-Amino-6H-oxazolo[5,4-d]pyrimidin-7-one], the Guanine riboswitch binding (guanine riboswitch) is reported as “able to bind guanine riboswitch and Yes”, the “S. aureus growth inhibition, MIC” value ([5]; S. aureus ATCC 29213, 24 h, 37° C.) is reported as 1000 µg/mL and the MIC [5, 11] is reported as 1020 µg/mL (≈ 6730 µM). The “S. aureus growth inhibition” value [5] was “Yes” and the “Antimicrobial activity on E. coli” value (E. coli ATCC35695) was “no antimicrobial activity”.

With `Nc1nc2nc(Cl)sc2c(=O)[nH]1` [Compound 2.17, 5-amino-2-chloro-2,3-dihydrothiazolo[4,5]pyrimidine-7-(6H)-one] the Guanine riboswitch binding (guanine riboswitch) was “Yes”, the MIC [5, 11] was 128 µg/mL (≈ 632 µM) and the “S. aureus growth inhibition” value [5] was “Yes”. The “Antimicrobial activity on E. coli” value (E. coli ATCC35695) was “no antimicrobial activity”.

In the case of `CC[C@H]1OC(=O)[C@H](C)[C@@H](O[C@H]2C[C@@](C)(OC)[C@@H](O)[C@H](C)O2)[C@H](C)[C@@H](O[C@@H]2O[C@H](C)C[C@H](N(C)C)[C@H]2O)[C@](C)(O)C[C@@H](C)C(=O)[C@H](C)[C@@H](O)[C@]1(C)O` [Erythromicin, reference compound], the MIC (E. coli Imp) is reported as 0.125 to 1 µg/mL (≈ 0.17 to 1.36 µM), the MIC [5, 10] is reported as 0.5 µg/mL (≈ 0.681 µM) and the MIC (E. coli AcrAB—/—) is reported as 1 to 4 µg/mL (≈ 1.36 to 5.45 µM). For the same compound, the MIC (E. coli ATCC35695) was 128 µg/mL (≈ 174 µM).

With `CN[C@H](CC(C)C)C(=O)N[C@H]1C(=O)N[C@@H](CC(N)=O)C(=O)N[C@H]2C(=O)N[C@H]3C(=O)N[C@H](C(=O)N[C@H](C(=O)O)c4cc(O)cc(O)c4-c4cc3ccc4O)[C@H](O)c3ccc(c(Cl)c3)Oc3cc2cc(c3O[C@@H]2O[C@H](CO)[C@@H](O)[C@H](O)[C@H]2O[C@H]2C[C@](C)(N)[C@H](O)[C@H](C)O2)Oc2ccc(cc2Cl)[C@H]1O` [Vancomycin, reference compound] the MIC (E. coli Imp) was 0.25 µg/mL (≈ 0.173 µM), the MIC [5] was 1 µg/mL (≈ 0.69 µM) and the MIC (E. coli AcrAB—/—) was greater than 128 µg/mL. For the same compound, the MIC (E. coli ATCC35695) was greater than 128 µg/mL.

In the case of `Nc1ncnc2[nH]cnc12` [adenine], the Relative binding [1, 9] is reported as 0.05.

Compound `O=C(O)c1cn(C2CC2)c2cc(N3CCNCC3)c(F)cc2c1=O` [ciprofloxacin, reference compound] has an MIC [5, 10] of 0.5 µg/mL (≈ 1.51 µM).

For `Nc1nc2[nH]cnc2c(=O)[nH]1` [guanine], the Relative binding ([1]; compound at 1 μM) was 1.

`O=c1[nH]cnc2[nH]cnc12` [hypoxanthine] showed a Relative binding [1, 9] of 0.50.

With `O=c1[nH]c(=O)c2nc[nH]c2[nH]1` [xanthine] the Relative binding [1, 9] was 0.08.
